Km data for 2 compounds are collected here from publication PMC11005471 (Frontiers in Veterinary Science, 2024).

What is called Km is the substrate concentration at which the rate is half of its maximum.

Where two headings read alike, the source gives them in different places.

Test [1] concerns Bbp. It counts as biochemical, Brucella suis.
For test [2], the system named is Bbp. The class given is biochemical, Brucella suis. The source holds these as a separate data set.

For the compound `O=P(O)(O)OC[C@H]1OC(O)(COP(=O)(O)O)[C@@H](O)[C@@H]1O` (some centres unmarked) [F1,6bP], the Km in the test on Bbp [1] came out at 53.2 ± 6.3 µM.

`O=C(COP(=O)(O)O)[C@@H](O)[C@H](O)[C@H](O)[C@H](O)COP(=O)(O)O` [S1,7bP]: in the test on Bbp [2], the Km was 13.9 ± 3.2 µM.
